{"source": "patent US4345938A", "about": "“Herbicidal 2-haloacetanilides” (Monsanto Company, priority 1980, dated 1982)", "format_in_all_cases": "in vivo", "key": {"Monochoria vaginalis": {"tested_on": "Monochoria vaginalis", "test": "Field transplant rice test, applied 0 DAT, MV", "conditions": "Pontederia vaginalis, 0 h, read-out: Percent Inhibition, MV; for inhibition at 375 g/ha: 0.375 Kg/Ha; for inhibition at 750 g/ha: 0.75 Kg/Ha; for inhibition at 1500 g/ha: 1.5 Kg/Ha; for inhibition at 3000 g/ha: 3.0 Kg/Ha", "protocol": "(§1) The test data in Table III for all compounds was obtained under identical test conditions. The weeds used in the tests herein have the following abbreviations in the tables: Echinochloa crus-galli (EC), Monochloria vaginalis (MV), Cyperus Serotinus (CS), Eleocharis Kuroguwai (EK) and Sagittaria trifolia (ST).\n(§2) In further comparative tests, a preferred compound of this invention (Example 1) was tested in the field with prior art Compounds A-D. These tests were conducted under conditions reflecting herbicide application times generally favorable to all herbicides in the test. The timing of application of herbicides to transplant rice is very important, whether, as in some instances, prior to transplanting the rice; in other instances, at the time of transplanting or else after transplanting. Application times are conventionally referred to as \"days before transplant\" (DBT) or \"days after transplant\" (\"DAT\"). The field test data in Table IV was obtained from a test in which the herbicides were applied at the time of transplant, i.e., \"0 DAT\", with observations being made weekly up to six weeks after transplant (\"WAT\") beginning at two weeks after transplant; for illustrative and representative purposes, only the early, middle and late period observations, i.e., 2 WAT, 4 WAT and 6 WAT, are shown in Table IV. The data in Table IV is for rates of application common to all herbicides in the test, i.e., from 3.0 kg/ha (2.67 lb/A) down to 0.375 kg/ha (0.34 lb/A). All herbicides were applied at their actual or expected use rates, i.e., as granules containing 2.5% by weight herbicide for the compound of Example 1, Compounds B, C and D and 5.0% by weight for Compound A."}, "Cyperus serotinus [1]": {"tested_on": "Cyperus serotinus", "test": "Field transplant rice test, applied 0 DAT, CS", "conditions": "0 h, read-out: Percent Inhibition, CS; for inhibition at 375 g/ha: 0.375 Kg/Ha; for inhibition at 750 g/ha: 0.75 Kg/Ha; for inhibition at 1500 g/ha: 1.5 Kg/Ha; for inhibition at 3000 g/ha: 3.0 Kg/Ha", "protocol": "as §1, §2"}, "Eleocharis kuroguwai": {"tested_on": "Eleocharis kuroguwai", "test": "Field transplant rice test, applied 9 DAT, EK", "conditions": "for inhibition at 375 g/ha / inhibition at 750 g/ha / inhibition at 1500 g/ha / inhibition at 3000 g/ha: Eleocharis kuroguwai, 216 h, read-out: Percent Inhibition, EK; for inhibition at 375 g/ha: 0.375 Kg/Ha; for inhibition at 750 g/ha: 0.75 Kg/Ha; for inhibition at 1500 g/ha: 1.5 Kg/Ha; for inhibition at 3000 g/ha: 3.0 Kg/Ha", "text": "(§3) In the discussion of data below, occasional reference is made to herbicide application rates symbolized as \"GR15 \" and \"GR85 \"; these rates are given in kilograms per hectare (kg/ha) which are convertible into pounds per acre (lbs/A) by dividing the kg/ha rate by 1.12.\n(§4) A further guide to the effectiveness of a chemical as a selective herbicide is the \"selectivity factor\" (\"SF\") for a herbicide in given crops and weeds. The selectivity factor is a measure of the relative degree of crop safety and weed injury and is expressed in terms of the GR15 /GR85 ratio, i.e., the GR15 rate for the crop divided by the GR85 rate for the weed, both rates in kg/ha (lb/A.)\nas §1, §2\n(§5) In Table V are presented field data showing the relative performance of the compound of Example 1 and Compounds A-D applied 9 DAT, with observations being made weekly from 3 WAT to 7 WAT; again, for illustrative and representative purposes, only the early, middle and late period observations are reported in Table V, the herbicide rates and concentrations of active ingredients the same as is shown in Table IV."}, "Rice": {"tested_on": "Rice", "test": "Field transplant rice test, applied 0 DAT, rice injury", "conditions": "Oryza sativa, 0 h, read-out: Percent Inhibition, Rice; for inhibition at 375 g/ha: 0.375 Kg/Ha; for inhibition at 750 g/ha: 0.75 Kg/Ha; for inhibition at 1500 g/ha: 1.5 Kg/Ha; for inhibition at 3000 g/ha: 3.0 Kg/Ha", "protocol": "as §2"}, "Cyperus serotinus [2]": {"tested_on": "Cyperus serotinus", "test": "Field transplant rice test, applied 9 DAT, CS", "conditions": "for inhibition at 375 g/ha / inhibition at 750 g/ha / inhibition at 1500 g/ha / inhibition at 3000 g/ha: Cyperus serotinus, 216 h, read-out: Percent Inhibition, CS; for inhibition at 375 g/ha: 0.375 Kg/Ha; for inhibition at 750 g/ha: 0.75 Kg/Ha; for inhibition at 1500 g/ha: 1.5 Kg/Ha; for inhibition at 3000 g/ha: 3.0 Kg/Ha", "text": "as §3, §4, §1, §2, §5"}}, "note": "Where two headings read alike, the source gives them in different places.", "data": [{"smiles": "CCCOCCN(C(=O)CCl)c1c(CC)cccc1CC", "note": "[Compound D, 2',6'-diethyl-N-(n-propoxyethyl)-2-chloroacetanilide]", "values": [{"measurement": "inhibition at 375 g/ha", "setting": "Monochoria vaginalis; 2 WAT", "value": 90, "unit": "%"}, {"measurement": "inhibition at 375 g/ha", "setting": "Monochoria vaginalis; 4 WAT", "value": 95, "unit": "%"}, {"measurement": "inhibition at 375 g/ha", "setting": "Monochoria vaginalis; 6 WAT", "value": 83, "unit": "%"}, {"measurement": "inhibition at 750 g/ha", "setting": "Monochoria vaginalis; 2 WAT", "value": 100, "unit": "%"}, {"measurement": "inhibition at 750 g/ha", "setting": "Monochoria vaginalis; 4 WAT", "value": 99, "unit": "%"}, {"measurement": "inhibition at 750 g/ha", "setting": "Monochoria vaginalis; 6 WAT", "value": 100, "unit": "%"}, {"measurement": "inhibition at 1500 g/ha", "setting": "Monochoria vaginalis; 2 WAT", "value": 98, "unit": "%"}, {"measurement": "inhibition at 1500 g/ha", "setting": "Monochoria vaginalis; 4 WAT", "value": 100, "unit": "%"}, {"measurement": "inhibition at 1500 g/ha", "setting": "Monochoria vaginalis; 6 WAT", "value": 100, "unit": "%"}, {"measurement": "inhibition at 3000 g/ha", "setting": "Monochoria vaginalis; 2 WAT", "value": 100, "unit": "%"}, {"measurement": "inhibition at 3000 g/ha", "setting": "Monochoria vaginalis; 4 WAT", "value": 98, "unit": "%"}, {"measurement": "inhibition at 3000 g/ha", "setting": "Monochoria vaginalis; 6 WAT", "value": 98, "unit": "%"}, {"measurement": "inhibition at 375 g/ha", "setting": "Cyperus serotinus [1]; 2 WAT", "value": 82, "unit": "%"}, {"measurement": "inhibition at 375 g/ha", "setting": "Cyperus serotinus [1]; 4 WAT", "value": 65, "unit": "%"}, {"measurement": "inhibition at 375 g/ha", "setting": "Cyperus serotinus [1]; 6 WAT", "value": 33, "unit": "%"}, {"measurement": "inhibition at 750 g/ha", "setting": "Cyperus serotinus [1]; 2 WAT", "value": 73, "unit": "%"}, {"measurement": "inhibition at 750 g/ha", "setting": "Cyperus serotinus [1]; 4 WAT", "value": 77, "unit": "%"}, {"measurement": "inhibition at 750 g/ha", "setting": "Cyperus serotinus [1]; 6 WAT", "value": 70, "unit": "%"}, {"measurement": "inhibition at 1500 g/ha", "setting": "Cyperus serotinus [1]; 2 WAT", "value": 92, "unit": "%"}, {"measurement": "inhibition at 1500 g/ha", "setting": "Cyperus serotinus [1]; 4 WAT", "value": 93, "unit": "%"}, {"measurement": "inhibition at 1500 g/ha", "setting": "Cyperus serotinus [1]; 6 WAT", "value": 93, "unit": "%"}, {"measurement": "inhibition at 3000 g/ha", "setting": "Cyperus serotinus [1]; 2 WAT", "value": 67, "unit": "%"}, {"measurement": "inhibition at 3000 g/ha", "setting": "Cyperus serotinus [1]; 4 WAT", "value": 65, "unit": "%"}, {"measurement": "inhibition at 3000 g/ha", "setting": "Cyperus serotinus [1]; 6 WAT", "value": 60, "unit": "%"}, {"measurement": "selectivity factor (GR15/GR85), EK in transplant rice", "setting": "Eleocharis kuroguwai; 3 WAT", "value": "about 1"}, {"measurement": "inhibition at 375 g/ha", "setting": "Eleocharis kuroguwai; 3 WAT", "value": 50, "unit": "%"}, {"measurement": "inhibition at 375 g/ha", "setting": "Eleocharis kuroguwai; 5 WAT", "value": 23, "unit": "%"}, {"measurement": "inhibition at 375 g/ha", "setting": "Eleocharis kuroguwai; 7 WAT", "value": 0, "unit": "%"}, {"measurement": "inhibition at 750 g/ha", "setting": "Eleocharis kuroguwai; 3 WAT", "value": 45, "unit": "%"}, {"measurement": "inhibition at 750 g/ha", "setting": "Eleocharis kuroguwai; 5 WAT", "value": 20, "unit": "%"}, {"measurement": "inhibition at 750 g/ha", "setting": "Eleocharis kuroguwai; 7 WAT", "value": 0, "unit": "%"}, {"measurement": "inhibition at 1500 g/ha", "setting": "Eleocharis kuroguwai; 3 WAT", "value": 52, "unit": "%"}, {"measurement": "inhibition at 1500 g/ha", "setting": "Eleocharis kuroguwai; 5 WAT", "value": 30, "unit": "%"}, {"measurement": "inhibition at 1500 g/ha", "setting": "Eleocharis kuroguwai; 7 WAT", "value": 0, "unit": "%"}, {"measurement": "inhibition at 3000 g/ha", "setting": "Eleocharis kuroguwai; 3 WAT", "value": 84, "unit": "%"}, {"measurement": "inhibition at 3000 g/ha", "setting": "Eleocharis kuroguwai; 5 WAT", "value": 78, "unit": "%"}, {"measurement": "inhibition at 3000 g/ha", "setting": "Eleocharis kuroguwai; 7 WAT", "value": 45, "unit": "%"}, {"measurement": "inhibition at 375 g/ha", "setting": "Rice; 2 WAT", "value": 0, "unit": "%"}, {"measurement": "inhibition at 375 g/ha", "setting": "Rice; 4 WAT", "value": 3, "unit": "%"}, {"measurement": "inhibition at 375 g/ha", "setting": "Rice; 6 WAT", "value": 2, "unit": "%"}, {"measurement": "inhibition at 750 g/ha", "setting": "Rice; 2 WAT", "value": 2, "unit": "%"}, {"measurement": "inhibition at 750 g/ha", "setting": "Rice; 4 WAT", "value": 2, "unit": "%"}, {"measurement": "inhibition at 750 g/ha", "setting": "Rice; 6 WAT", "value": 0, "unit": "%"}, {"measurement": "inhibition at 1500 g/ha", "setting": "Rice; 2 WAT", "value": 10, "unit": "%"}, {"measurement": "inhibition at 1500 g/ha", "setting": "Rice; 4 WAT", "value": 8, "unit": "%"}, {"measurement": "inhibition at 1500 g/ha", "setting": "Rice; 6 WAT", "value": 7, "unit": "%"}, {"measurement": "inhibition at 3000 g/ha", "setting": "Rice; 2 WAT", "value": 8, "unit": "%"}, {"measurement": "inhibition at 3000 g/ha", "setting": "Rice; 4 WAT", "value": 7, "unit": "%"}, {"measurement": "inhibition at 3000 g/ha", "setting": "Rice; 6 WAT", "value": 5, "unit": "%"}, {"measurement": "inhibition at 375 g/ha", "setting": "Cyperus serotinus [2]; 3 WAT", "value": 92, "unit": "%"}, {"measurement": "inhibition at 375 g/ha", "setting": "Cyperus serotinus [2]; 5 WAT", "value": 87, "unit": "%"}, {"measurement": "inhibition at 375 g/ha", "setting": "Cyperus serotinus [2]; 7 WAT", "value": 67, "unit": "%"}, {"measurement": "inhibition at 750 g/ha", "setting": "Cyperus serotinus [2]; 3 WAT", "value": 77, "unit": "%"}, {"measurement": "inhibition at 750 g/ha", "setting": "Cyperus serotinus [2]; 5 WAT", "value": 67, "unit": "%"}, {"measurement": "inhibition at 750 g/ha", "setting": "Cyperus serotinus [2]; 7 WAT", "value": 33, "unit": "%"}, {"measurement": "inhibition at 1500 g/ha", "setting": "Cyperus serotinus [2]; 3 WAT", "value": 77, "unit": "%"}, {"measurement": "inhibition at 1500 g/ha", "setting": "Cyperus serotinus [2]; 5 WAT", "value": 77, "unit": "%"}, {"measurement": "inhibition at 1500 g/ha", "setting": "Cyperus serotinus [2]; 7 WAT", "value": 100, "unit": "%"}, {"measurement": "inhibition at 3000 g/ha", "setting": "Cyperus serotinus [2]; 3 WAT", "value": 90, "unit": "%"}, {"measurement": "inhibition at 3000 g/ha", "setting": "Cyperus serotinus [2]; 5 WAT", "value": 100, "unit": "%"}, {"measurement": "inhibition at 3000 g/ha", "setting": "Cyperus serotinus [2]; 7 WAT", "value": 100, "unit": "%"}, {"measurement": "selectivity factor (GR15/GR85), CS in transplant rice", "setting": "Cyperus serotinus [2]; between 3 WAT and 7 WAT", "value": 1}]}]}
